We go through one compound from patent publication US20150045610A1, “METHOD OF MODIFYING SPERMATOGENESIS, SPERMIOGENESIS AND/OR FERTILITY IN MAMMALS” (Monell Chemical Senses Center, priority 2012, published 2015).

Like-named read-outs stand apart in the source and are kept apart here.

The target in the experiment is T1, human T1R3 receptor (Homo sapiens, UniProt Q7RTX0).
T1 construct: expressed in transfected cells
T1 sequence (Q7RTX0 21-852): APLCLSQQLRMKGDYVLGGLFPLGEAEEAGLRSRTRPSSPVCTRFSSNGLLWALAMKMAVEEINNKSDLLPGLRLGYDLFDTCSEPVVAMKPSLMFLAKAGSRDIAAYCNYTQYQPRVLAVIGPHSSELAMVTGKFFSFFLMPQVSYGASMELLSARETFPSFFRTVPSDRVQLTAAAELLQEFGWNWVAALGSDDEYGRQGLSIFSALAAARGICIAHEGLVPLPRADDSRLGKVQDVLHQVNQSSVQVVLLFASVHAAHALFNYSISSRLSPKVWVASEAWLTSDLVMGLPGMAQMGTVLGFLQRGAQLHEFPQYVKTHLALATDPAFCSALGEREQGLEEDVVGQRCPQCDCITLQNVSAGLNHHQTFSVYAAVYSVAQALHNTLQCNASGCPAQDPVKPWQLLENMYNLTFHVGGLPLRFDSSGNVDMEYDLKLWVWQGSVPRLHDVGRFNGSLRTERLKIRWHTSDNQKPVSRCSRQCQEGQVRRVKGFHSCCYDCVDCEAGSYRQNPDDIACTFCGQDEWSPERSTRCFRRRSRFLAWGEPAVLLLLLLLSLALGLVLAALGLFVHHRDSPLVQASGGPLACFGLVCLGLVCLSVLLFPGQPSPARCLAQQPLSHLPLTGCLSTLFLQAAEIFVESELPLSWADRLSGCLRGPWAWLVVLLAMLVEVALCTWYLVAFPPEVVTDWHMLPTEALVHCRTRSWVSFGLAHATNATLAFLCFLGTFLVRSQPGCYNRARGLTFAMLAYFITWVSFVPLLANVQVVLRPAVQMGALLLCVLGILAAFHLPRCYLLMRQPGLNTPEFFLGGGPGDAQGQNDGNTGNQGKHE
T1 sequence (Q8TE23 20-839 partner): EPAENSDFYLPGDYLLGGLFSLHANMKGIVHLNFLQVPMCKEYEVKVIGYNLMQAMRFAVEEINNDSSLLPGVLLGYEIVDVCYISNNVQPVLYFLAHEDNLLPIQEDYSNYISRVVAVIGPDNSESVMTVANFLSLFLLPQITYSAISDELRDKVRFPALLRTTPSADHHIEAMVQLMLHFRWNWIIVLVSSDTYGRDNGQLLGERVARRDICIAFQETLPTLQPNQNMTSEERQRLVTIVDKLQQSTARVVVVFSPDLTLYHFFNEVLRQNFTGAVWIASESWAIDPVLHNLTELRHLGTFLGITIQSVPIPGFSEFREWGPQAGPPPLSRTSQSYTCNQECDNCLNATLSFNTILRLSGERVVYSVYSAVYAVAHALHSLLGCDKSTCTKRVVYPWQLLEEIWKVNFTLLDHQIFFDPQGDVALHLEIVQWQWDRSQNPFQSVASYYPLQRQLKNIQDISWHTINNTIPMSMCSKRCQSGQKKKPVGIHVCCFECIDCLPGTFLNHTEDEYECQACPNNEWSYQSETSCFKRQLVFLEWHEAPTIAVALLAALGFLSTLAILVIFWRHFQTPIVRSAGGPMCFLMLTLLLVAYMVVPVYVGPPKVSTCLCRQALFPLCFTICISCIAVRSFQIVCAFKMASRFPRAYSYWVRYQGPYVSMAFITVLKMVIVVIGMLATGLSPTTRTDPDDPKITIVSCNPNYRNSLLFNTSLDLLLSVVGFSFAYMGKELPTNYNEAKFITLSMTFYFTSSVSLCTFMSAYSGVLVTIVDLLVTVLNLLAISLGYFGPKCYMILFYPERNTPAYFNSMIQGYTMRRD
Kind of experiment: sweet receptor inhibition assay (receptor activated with 2.5 mM sucralose). It is filed as cell-based. The procedure:
FIG. 1 is a bar graph showing human (h), mouse (m) and chimeric mouse/human (m/h) sweet receptors activated with 2.5 mM sucralose and assayed for inhibition by certain T1R3 inhibitors or controls, measured by DF/F in %.
Chimeric receptors of T1R3 contained the extracellular portion of human or mouse receptor and the transmembrane domain and C-terminal domain from mouse or human receptor: mh indicates the presence of the mouse extracellular domain and human transmembrane domain; hm indicates the presence of the human extracellular domain and mouse transmembrane domain.

Turning to `CC(C)(Oc1ccc(Cl)cc1)C(=O)O` [clofibric acid], the IC50 came out at 28 µM (read-out: IC50, block of the T1R3 receptor) and 0.028 µM (read-out: IC50 values, human T1R3 inhibitors).
